Reference: patent publication US6441027B1, “Method of regulating the female reproductive system through angiogenesis inhibitors” (Children's Medical Center Corporation, priority 1996, dated 2002)
Entries after “also recorded” stand apart in the source; their conditions may differ.

Experiments:
inseminated mice [1] = test: Gross morphology and hematoxylin/eosin histology of gravid uteri, embryos and ovaries; assay type: in vivo, mouse
Experimental: FIGS. 1A-1I show the gross morphology of gravid mouse uteri. Inseminated mice were treated with AGM-1470 30 mg/kg s.c. or saline on Embryonic day 1 (E1) or E7, and mice were sacrificed at E9, 13 or 18. FIG. 1A, 1B, and 1C show the normal pattern of growth of fetuses on E9, E13 and E18.
FIGS. 2A-2F show hematoxylin/eosin staining of mouse embryos on E9. Inseminated mice were treated with AGM-1470 […] s.c. or saline on E1 or E7, and mice were sacrificed at E9. Uteri were resected and stained with hematoxylin/eosin as described in the material and methods section. […] (P−placenta, D=decidua).
Gravid uteri and ovaries were resected enbloc, weighed, fixed and Carnoy's fixative, and embedded in paraffin according to standard histological techniques. Sections were cut at 6 to 10 micrometers and stained with hematoxylin and eosin. When AGM-1470 was injected on E14, fetuses were allowed to come to term.

inseminated mice [2] = test: Number of implantation sites after single dose pre-implantation; assay type: in vivo, mouse; settings: 30 mg/kg on E1, n=16
Experimental: The same procedures were followed as described above in Example 2 to administer 30 mg/kg AGM-1470 in single doses on the specified days. The mice were sacrificed and the number of implantation cites were counted. There was no decrease in the number of implantation cites when AGM-1470 was given on E1 [control mice had 8±0.2 implants (n=29), mice injected with AGM-1470 on E1 had 9±0.4 implants (n=16)].

intersite endometrium = test: Factor VIII microvessel density of intersite endometrium on E6; assay type: in vivo, mouse
Experimental: To test this hypothesis, mice were treated with AGM-1470 on E1 and sacrificed at E6, a time point prior to placental formation. The uteri of the mice were examined by antibodies to Factor VIII and PCNA to determine if there was any difference in the degree of endometrial angiogenesis or the proliferative response of the decidua induced by trophoblast invasion. However, in the decidua there was a 50% decrease in the proliferation of stromal cells in the AGM-1470 treated mice as compared to control (PCNA staining/X630 field in control was 48%±3, n=4, versus 24%±5, n=4, P≦0.005 in AGM-1470 treated mice. See FIG. 4A and 4B). […]
To determine microvessel density, Carnoy's-fixed tissue sections were pretreated with 2 microgram/ml Proteinase K (Boehringer Mannheim, Mannheim, Germany) at 37° Celsius for 15 minutes before staining with a rabbit polyclonal antibody against mouse factor VIII (Dako, Carpinteria, Calif.). Positive staining was detected by incubating sequentially with a secondary antibody against rabbit conjugated to horseradish peroxidase (Dako) and diaminobenzidine tetrahydrochloride (DAB) (Dako) as a chromagen. […] Microvessel density was determined by light microscopy. Each count was expressed as the number of microvessels identified within a selected field. Ten fields per section were counted. […]

endometrium = test: Cycling mice, chronic treatment: examination of the uterus; assay type: in vivo, mouse
Experimental: Mice were randomized and received either AGM-1470 30 mg/kg s.c. or saline 0.1 ml s.c. every other day for 16 days (approximately four estrous cycles). On the last of four days of treatment mice were housed with male mice to see if successful mating and conception would occur. On day 16 mice were weighed and sacrificed by cervical dislocation. The ovaries were resected enbloc, fixed in Carnoy's fixative, and embedded in paraffin according to standard histologic techniques. Sections were cut at 6 microns and stained with hematoxylin and eosin.
To determine microvessel density, Carnoy's-fixed tissue sections were pretreated with 2 microgram/ml Proteinase K (Boehringer Mannheim, Mannheim, Germany) at 37° Celsius for 15 minutes before staining with a rabbit polyclonal antibody against mouse factor VIII (Dako, Carpinteria, Calif.). Positive staining was detected by incubating sequentially with a secondary antibody against rabbit conjugated to horseradish peroxidase (Dako) and diaminobenzidine tetrahydrochloride (DAB) (Dako) as a chromagen. Sections were counterstained with methyl green (Schmid & Co., Stuttgart, Germany) and mounted in Permount (Fisher, Fair Lawn, N.J.). Microvessel density was determined by light microscopy. Each count was expressed as the number of microvessels identified within a selected field. Ten fields per section were counted.
To determine the rate of cellular proliferation, staining for proliferating cell nuclear antigen (PCNA) was performed. Carnoy's-fixed sections were pretreated in target unmasking fluid (Signet Laboratories, Dedham, Mass.) for 10 minutes at 90° for antigen retrieval. Immunohistochemical staining was performed with an anti-PCNA murine monoclonal antibody (Signet). Positive staining was detected by using horse radish peroxidase-conjugated secondary (Dako) and tertiary (Dako) antibodies, and DAB as a chromagen. The PCNA labeling index was determined by counting the percentage of stained cells under light microscopy within selected 630× fields. A minimum of 1,000 cells were counted for each specimen.
For staining of apoptotic cells, Carnoy's-fixed sections were treated according to the protocol of the Apoptag manufacturer (Oncor, Gaithersburg, Md.) except the pretreatment step with Proteinase K was omitted. After TdT labeling of specimens, positive staining was detected with a peroxidase-labeled antibody against deoxyuridine peroxidase substrate. Sections were counterstained as described above. The apoptotic index was determined by counting the percentage of stained cells under light microscopy within selected 630× fields. A minimum of 1,000 cells was counted for each specimen.
In experiments with AGM-1470 treatment of pregnant mice, transverse sections through embryos contained within the uterus were stained. Microvessels density was determined at the intersite endometrium and PCNA was determined in the decidual stroma. In experiments with AGM-1470 treatment of non-pregnant mice, transverse sections through the endometrium were stained for factor VIII, PCNA or apoptotic cells at the level of the endometrial lumen at its widest diameter. Statistical analysis was performed with ANOVA on ranked data to account for the expected variation of endometrial angiogenesis and glandular proliferation in the control due to different phases of the estrous cycle.

angiogenesis = settings: cited from earlier work
[3] = 30 mg/kg every other day for 16 days
[4] = 30 mg/kg every other day for 16 days, n=6
[5] = 30 mg/kg every other day for 16 days, vs control

In the case of `CO[C@@H]1[C@H](OC(=O)NC(=O)CCl)CC[C@]2(CO2)[C@H]1[C@@]1(C)O[C@@H]1CC=C(C)C` [AGM-1470, O-chloroacetylcarbamoyl fumagillol], the “placental development (histology)” value (inseminated mice [1]; 30 mg/kg on E1) is reported as “failure of placental development”, the “placental development (histology)” value (inseminated mice [1]; 30 mg/kg on E7) is reported as “inhibition of placental and fetal development; also recorded: decrease in nucleated red blood cells and labyrinth structure in the placenta” and the “gross morphology of gravid uteri” value (inseminated mice [1]; 30 mg/kg s.c. on E7) is reported as “hemorrhage around the implantation sites by E13; also recorded: resorption by E18”. The “fetal histology on E9” value (inseminated mice [1]; both treated groups (E1 or E7)) was “Fetal disorganization”, the “embryo histology on E9” value (inseminated mice [1]; injected on E1) was “small, disorganized embryo” and the “nucleated red blood cells in E9 embryos” value (inseminated mice [1]; injected on E7) was “reduced nucleated red blood cells in the embryo; also recorded: marked decrease in nucleated red blood cells”. For the same compound, the “histology of the ovaries” value (inseminated mice [1]; single dose on E1 or E7, all time points) was “appeared normal”, the “gross morphology of gravid uteri” value (inseminated mice [1]; treated on E1, after E9) was “failure of further growth with resorption” and the “number of implantation sites” value (inseminated mice [2]) was 9±0.4 implants. For the same compound, the “decrease in microvessel density in intersite endometrium vs control” value (intersite endometrium; treated on E1, sacrificed E6) was 52%, the “microvessel density in intersite endometrium” value (intersite endometrium; treated on E1, sacrificed E6, n=4) was 57±13 vessels/X250 field and the “decrease in microvessel density (Factor VIII) vs control” value (endometrium; [3]) was 41%. The “decrease in number of proliferating vessels” value (endometrium; [3]) was 71%, the “decrease in percentage of proliferating glandular epithelial cells (PCNA)” value (endometrium; [3]) was 67% and the “decrease in proliferation rate of endometrial stromal cells (PCNA)” value (endometrium; [3]) was 68%. The “number of proliferating vessels” value (endometrium; 30 mg/kg every other day for 16 days, n=5) was 5±2 vessels/X630 field, the endometrial glands (endometrium; [4]) was 3±2 glands/X250 field and the “percentage of proliferating glandular epithelial cells (PCNA)” value (endometrium; [4]) was 10%±3. The “proliferation rate of endometrial stromal cells (PCNA)” value (endometrium; [4]) was 5% ±2, the “apoptotic index (Apo-Tag staining)” value (endometrium; [5]) was “not significantly different” and the uterus thickness (endometrium; [5]) was “consistently thinner”. For the same compound, the “fewer endometrial glands than control” value (endometrium; 30 mg/kg s.c. every other day for 16 days) was 63% and the “activity relative to parent compound fumagillin” value (angiogenesis) was 50 times.
